By IC50 is commonly meant the concentration needed to halve the response being measured.

The structures appear in SMILES notation.

Experimental findings from patent US20020026051A1, “Dithiepino [6,5-b]pyridines, and related compositions and methods” (priority 1999, published 2002) are described below.

The first test deals with T1, calcium channel (Oryctolagus cuniculus, UniProt P15381).
T1 construct: from tissue; host or cells: rabbit heart membrane preparation
T1 sequence (P15381 whole entry, other chains not shown): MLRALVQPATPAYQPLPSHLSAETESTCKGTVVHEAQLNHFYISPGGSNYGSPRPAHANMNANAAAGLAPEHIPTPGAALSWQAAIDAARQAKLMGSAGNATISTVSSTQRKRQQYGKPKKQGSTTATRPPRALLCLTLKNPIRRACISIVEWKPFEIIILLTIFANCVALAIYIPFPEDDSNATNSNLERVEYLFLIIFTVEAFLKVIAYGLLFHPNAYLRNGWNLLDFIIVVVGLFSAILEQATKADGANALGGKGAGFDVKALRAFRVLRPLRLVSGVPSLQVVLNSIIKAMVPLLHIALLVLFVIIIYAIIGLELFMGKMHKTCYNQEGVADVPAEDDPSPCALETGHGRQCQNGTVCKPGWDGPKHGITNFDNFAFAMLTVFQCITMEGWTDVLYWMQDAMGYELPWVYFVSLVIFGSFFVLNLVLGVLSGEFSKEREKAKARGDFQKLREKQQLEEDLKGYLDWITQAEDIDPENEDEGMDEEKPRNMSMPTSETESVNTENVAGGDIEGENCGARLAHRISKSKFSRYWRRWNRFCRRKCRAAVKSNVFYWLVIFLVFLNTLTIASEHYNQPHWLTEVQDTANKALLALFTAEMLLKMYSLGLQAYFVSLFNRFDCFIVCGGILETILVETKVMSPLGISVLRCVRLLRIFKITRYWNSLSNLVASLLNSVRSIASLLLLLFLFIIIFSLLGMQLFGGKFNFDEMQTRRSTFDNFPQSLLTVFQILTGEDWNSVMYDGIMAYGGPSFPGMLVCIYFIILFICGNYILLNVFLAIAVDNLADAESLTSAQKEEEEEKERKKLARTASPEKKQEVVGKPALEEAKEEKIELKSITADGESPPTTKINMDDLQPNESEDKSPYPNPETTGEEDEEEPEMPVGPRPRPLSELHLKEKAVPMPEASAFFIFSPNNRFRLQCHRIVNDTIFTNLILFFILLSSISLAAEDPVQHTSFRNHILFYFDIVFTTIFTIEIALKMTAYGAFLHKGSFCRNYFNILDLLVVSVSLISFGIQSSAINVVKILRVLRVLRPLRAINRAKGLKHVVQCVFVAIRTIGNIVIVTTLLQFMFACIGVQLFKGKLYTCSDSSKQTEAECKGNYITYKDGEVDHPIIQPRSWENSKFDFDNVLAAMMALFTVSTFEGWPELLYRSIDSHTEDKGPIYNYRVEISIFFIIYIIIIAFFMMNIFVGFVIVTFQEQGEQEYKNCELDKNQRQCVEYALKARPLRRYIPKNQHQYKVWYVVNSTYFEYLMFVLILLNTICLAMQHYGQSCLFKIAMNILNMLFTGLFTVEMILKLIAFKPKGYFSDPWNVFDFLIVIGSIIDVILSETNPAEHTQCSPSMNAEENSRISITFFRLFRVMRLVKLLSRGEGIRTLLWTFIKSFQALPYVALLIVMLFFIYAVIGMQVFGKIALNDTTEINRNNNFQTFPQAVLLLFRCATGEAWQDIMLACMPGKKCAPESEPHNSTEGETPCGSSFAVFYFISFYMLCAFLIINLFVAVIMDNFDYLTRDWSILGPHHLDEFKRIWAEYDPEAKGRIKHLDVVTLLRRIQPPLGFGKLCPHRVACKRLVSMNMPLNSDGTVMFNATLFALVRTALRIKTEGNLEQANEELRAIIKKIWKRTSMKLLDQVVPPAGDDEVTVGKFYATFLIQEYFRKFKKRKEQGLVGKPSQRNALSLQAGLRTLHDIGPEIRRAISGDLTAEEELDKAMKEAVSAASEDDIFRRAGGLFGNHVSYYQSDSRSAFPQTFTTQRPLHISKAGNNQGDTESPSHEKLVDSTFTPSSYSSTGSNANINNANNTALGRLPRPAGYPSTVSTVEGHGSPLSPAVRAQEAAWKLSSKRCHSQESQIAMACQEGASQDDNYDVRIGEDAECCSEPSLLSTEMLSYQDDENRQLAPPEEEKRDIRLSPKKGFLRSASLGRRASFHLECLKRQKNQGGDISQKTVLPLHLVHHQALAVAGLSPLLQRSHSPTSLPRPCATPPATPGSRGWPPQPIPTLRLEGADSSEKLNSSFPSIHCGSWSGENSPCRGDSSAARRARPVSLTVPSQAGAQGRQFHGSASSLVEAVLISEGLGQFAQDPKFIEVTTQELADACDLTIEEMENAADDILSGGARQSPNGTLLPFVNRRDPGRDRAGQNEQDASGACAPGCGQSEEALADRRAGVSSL
T1 sequence (P13806 27-960 partner limits assumed, other chains not shown): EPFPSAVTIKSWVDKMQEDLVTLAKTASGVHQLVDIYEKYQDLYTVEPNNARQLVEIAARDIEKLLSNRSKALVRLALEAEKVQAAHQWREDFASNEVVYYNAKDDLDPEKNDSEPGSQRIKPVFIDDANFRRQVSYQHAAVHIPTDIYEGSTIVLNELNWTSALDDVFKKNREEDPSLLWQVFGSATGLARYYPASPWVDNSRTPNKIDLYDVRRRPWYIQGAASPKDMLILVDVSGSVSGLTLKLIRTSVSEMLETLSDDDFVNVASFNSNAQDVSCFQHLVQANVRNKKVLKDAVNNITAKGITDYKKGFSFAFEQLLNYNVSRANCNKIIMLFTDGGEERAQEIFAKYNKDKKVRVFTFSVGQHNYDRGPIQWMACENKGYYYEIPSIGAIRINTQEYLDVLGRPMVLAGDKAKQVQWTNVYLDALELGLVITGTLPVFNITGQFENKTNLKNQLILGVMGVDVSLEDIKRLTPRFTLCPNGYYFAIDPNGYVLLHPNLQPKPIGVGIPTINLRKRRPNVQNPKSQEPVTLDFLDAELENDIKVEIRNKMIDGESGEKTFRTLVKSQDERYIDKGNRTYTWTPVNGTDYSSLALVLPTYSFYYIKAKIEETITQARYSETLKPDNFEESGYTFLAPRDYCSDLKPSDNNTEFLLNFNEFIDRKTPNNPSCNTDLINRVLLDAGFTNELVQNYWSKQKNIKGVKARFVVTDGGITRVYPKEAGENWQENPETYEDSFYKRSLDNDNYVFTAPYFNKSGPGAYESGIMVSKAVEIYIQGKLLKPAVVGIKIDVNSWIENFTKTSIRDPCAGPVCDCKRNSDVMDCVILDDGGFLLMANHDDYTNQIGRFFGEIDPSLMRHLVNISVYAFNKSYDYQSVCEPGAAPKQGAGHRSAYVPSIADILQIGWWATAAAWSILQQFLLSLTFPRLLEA
T1 sequence (P13806 961-1106 partner limits assumed, other chains not shown): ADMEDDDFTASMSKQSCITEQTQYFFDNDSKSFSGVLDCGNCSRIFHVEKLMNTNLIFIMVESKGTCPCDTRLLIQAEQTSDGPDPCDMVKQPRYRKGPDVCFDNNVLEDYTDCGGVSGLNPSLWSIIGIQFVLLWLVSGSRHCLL
The test can be described thus: Assay for Inhibition of Nitrendipine Binding (3H-nitrendipine, heart membranes). The settings on record: 3H-nitrendipine displacement, rabbit heart membranes; Tables 1-5. As to the method:
Female, New Zealand white rabbits (1-2 kg) are sacrificed by cervical dislocation, and the heart is immediately removed, cleaned and chopped into small pieces. The tissue is homogenized in 5× times volume of 0.05M Hepes buffer, pH 7.4. The homogenate is centrifuged at 4000 g for 10 minutes, and the supernatant is re-centrifuged at 42,000×g for 90 minutes. The resulting membrane pellet is resuspended (0.7 ml/g weight) in 0.05M Hepes, pH 7.4 and stored at […] until used. Each tube of the binding assay contains ^3H-nitrendipine (0.05-0.50 nM), buffer, membranes (0.10 ml), and test compound in a total volume of 1.0 ml. After 90 minutes at 4° C., the bound nitrendipine is separated from the unbound by filtration on Whatman GF/C filters. After rinsing, the filters are dried and counted in a liquid scintillation counter.
Non-specific binding of ^3H-nitrendipine (that amount bound in the presence of excess unlabelled nitrendipine) is subtracted from the total bound to obtain specifically bound radiolabeled nitrendipine. The amount of specifically bound nitrendipine in the presence of a test compound is compared to that amount bound in the absence of a compound. A percent displacement (or inhibition) can then be calculated.
In the case of `CC1=C(C(=O)OCCN(C)Cc2ccccc2)C(c2c(F)c(F)c(F)c(F)c2F)C2=C(CS(=O)(=O)CCCS2(=O)=O)N1` (stereo not shown) [Compound 27, 2H,6H-1,5-Dithiocino[3,2-b]pyridine-9-carboxylic acid, 3,4,7,10-tetrahydro-8-methyl-10-(pentafluorophenyl)-2-[methyl(phenylmethyl)amino]ethyl ester 1,1,5,5-tetraoxide], the IC50 turned out to be 49 nM.
Same read-out and setting: the result for `CC1=C(C(=O)OCCN(C)Cc2ccccc2)C(c2c(F)cccc2Cl)C2=C(CS(=O)(=O)CCS2(=O)=O)N1` (stereo not shown) [Compound 1, 5H-1,4-Dithiepino[6,5-b]pyridine-8-carboxylic acid, 9-(2-chloro-6-fluorophenyl)-2,3,6,9-tetrahydro-7-methyl-2-[methyl(phenylmethyl)amino]ethyl ester 1,1,4,4-tetraoxide] reads 74 nM; that for `COC(=O)C1=C(C)NC2=C(C1c1ccccc1F)S(=O)(=O)CCS(=O)(=O)C2` (stereo not shown) [Compound 16, 5H-1,4-Dithiepino[6,5-b]pyridine-8-carboxylic acid, 9-(2-fluorophenyl)-2,3,6,9-tetrahydro-7-methyl-methyl ester 1,1,4,4-tetraoxide], 265 nM; that for `CC1=C(C(=O)OCCN(C)Cc2ccccc2)C(c2cccc([N+](=O)[O-])c2)C2=C(CS(=O)(=O)CCCS2(=O)=O)N1` (stereo not shown) [Compound 25, 2H,6H-1,5-Dithiocino[3,2-b]pyridine-9-carboxylic acid, 3,4,7,10-tetrahydro-8-methyl-10-(3-nitrophenyl)-2-[methyl(phenylmethyl)amino]ethyl ester 1,1,5,5-tetraoxide], 10 nM.
On the same count and under the same terms, the result for `CC1=C(C(=O)OCCN(C)Cc2cccs2)C(c2cc(F)c(F)c(F)c2)C2=C(CS(=O)(=O)CCS2(=O)=O)N1` (stereo not shown) [Compound 10, 5H-1,4-Dithiepino[6,5-b]pyridine-8-carboxylic acid, 2,3,6,9-tetrahydro-7-methyl-9-(3,4,5-trifluorophenyl)-2-[methyl(2-thienylmethyl)amino]ethyl ester 1,1,4,4-tetraoxide] reads 24 nM; that for `CC1=C(C(=O)OCCN(C)Cc2ccccc2)[C@@H](c2c(F)cccc2Cl)C2=C(CS(=O)(=O)CCS2(=O)=O)N1` (single isomer, unassigned) [Compound 2, 5H-1,4-Dithiepino[6,5-b]pyridine-8-carboxylic acid, 9-(2-chloro-6-fluorophenyl)-2,3,6,9-tetrahydro-7-methyl-2-[methyl(phenylmethyl)amino]ethyl ester 1,1,4,4-tetraoxide], 43 nM; that for `COC(=O)C1=C(C)NC2=C(C1c1c(F)c(F)c(F)c(F)c1F)S(=O)(=O)CCS(=O)(=O)C2` (stereo not shown) [Compound 13, 5H-1,4-Dithiepino[6,5-b]pyridine-8-carboxylic acid, 2,3,6,9-tetrahydro-7-methyl-9-(pentafluorophenyl)-methyl ester 1,1,4,4-tetraoxide], 27 nM.
In the case of `CC1=C(C(=O)OCCN(C)Cc2ccccc2)[C@H](c2c(F)cccc2Cl)C2=C(CS(=O)(=O)CCS2(=O)=O)N1` (single isomer, unassigned) [Compound 3, 5H-1,4-Dithiepino[6,5-b]pyridine-8-carboxylic acid, 9-(2-chloro-6-fluorophenyl)-2,3,6,9-tetrahydro-7-methyl-2-[methyl(phenylmethyl)amino]ethyl ester 1,1,4,4-tetraoxide], the IC50 is 160000 nM.
On the same count and under the same terms, the result for `C=C1CS(=O)(=O)C2=C(CS1(=O)=O)NC(C)=C(C(=O)OC)C2c1cccc(C(F)(F)F)c1F` (stereo not shown) [Compound 20, 5H-1,4-Dithiepino[6,5-b]pyridine-8-carboxylic acid, 9-[2-fluoro-3-(trifluoromethyl)phenyl]-2,3,6,9-tetrahydro-7-methyl-3-methylene-methyl ester 1,1,4,4-tetraoxide] reads 21 nM; that for `COC(=O)C1=C(C)NC2=C(C1c1ccccc1[N+](=O)[O-])S(=O)(=O)CCS(=O)(=O)C2` (stereo not shown) [Compound 19, 5H-1,4-Dithiepino[6,5-b]pyridine-8-carboxylic acid, 2,3,6,9-tetrahydro-7-methyl-9-(2-nitrophenyl)-methyl ester 1,1,4,4-tetraoxide], 210 nM.

The same test, now with this note: 3H-nitrendipine displacement, rabbit heart membranes; Tables 6-7.
Consider `CC1=C(C(=O)OCCOC(=O)C(C)C)C(c2c(F)cccc2Cl)C2=C(CS(=O)(=O)CCS2(=O)=O)N1` (stereo not shown) [Compound 57], for which the IC50 was found to be 143 nM.
With `CC1=C(C(=O)OCCOC(=O)C(C)C)C(c2c(F)cccc2Cl)C2=C(CS(=O)(=O)CCS2(=O)=O)N1` (stereo not shown) [Compound 64], the IC50 turned out to be 220 nM.
On the same count and under the same terms, the result for `CC1=C(C(=O)OCCOC(=O)c2ccncc2)C(c2c(F)cccc2Cl)C2=C(CS(=O)(=O)CCS2(=O)=O)N1` (stereo not shown) [Compound 78] reads 760 nM.
On the same count and under the same terms, then `CC1=C(C(=O)OCCOC(=O)CC(C)C)C(c2c(F)cccc2Cl)C2=C(CS(=O)(=O)CCS2(=O)=O)N1` (stereo not shown) [Compound 38], with 35 nM; and `CC1=C(C(=O)OCCCCOC(=O)c2ccccc2)C(c2c(F)cccc2Cl)C2=C(CS(=O)(=O)CCS2(=O)=O)N1` (stereo not shown) [Compound 49], with 57 nM; and `CC1=C(C(=O)OCCOC(=O)CN(C)C(=O)c2ccccc2)C(c2c(F)cccc2Cl)C2=C(CS(=O)(=O)CCS2(=O)=O)N1` (stereo not shown) [Compound 58], with 153 nM.
Still for that read-out and setting: then `CC(=O)OCCCOC(=O)C1=C(C)NC2=C(C1c1c(F)cccc1Cl)S(=O)(=O)CCS(=O)(=O)C2` (stereo not shown) [Compound 68], with 340 nM; and `CC1=C(C(=O)OCCOC(=O)CN(C)C)C(c2c(F)cccc2Cl)C2=C(CS(=O)(=O)CCS2(=O)=O)N1` (stereo not shown) [Compound 84], with 1230 nM.
Take `CC1=C(C(=O)OCc2oc(=O)oc2C)C(c2c(F)cccc2Cl)C2=C(CS(=O)(=O)CCS2(=O)=O)N1` (stereo not shown) [Compound 73]: the 50% inhibitory concentration (IC50) was found to be 417 nM.
Same read-out and setting: then `CC1=C(C(=O)OCCOC(=O)C(N)C(C)C)C(c2c(F)cccc2Cl)C2=C(CS(=O)(=O)CCS2(=O)=O)N1` (stereo not shown) [Compound 92], with 5800 nM; and `CC1=C(C(=O)OCCOC(=O)C2CCc3ccccc3C2)C(c2c(F)cccc2Cl)C2=C(CS(=O)(=O)CCS2(=O)=O)N1` (stereo not shown) [Compound 42, 7-methyl-9-[2-fluoro-6-chlorophenyl]-2,3,6 9-tetrahydo-1,1,4,4-tetraoxide 5H-1,4-Dithiepino[6,5-b]pyridine-8-carboxlic acid 2-[1,2,3,4-tetrahydo-2-napthoyl]oxyethyl ester], with 44 nM.
Still for that read-out and setting: the result for `CC1=C(C(=O)OCCOC(=O)CN)C(c2c(F)cccc2Cl)C2=C(CS(=O)(=O)CCS2(=O)=O)N1` (stereo not shown) [Compound 97] reads 150000 nM.

For a further test, the system named is trachealis muscle tissue. The test can be described thus: Test for Inhibition of Calcium-Dependent Smooth Muscle Contraction (trachea). In kind it is cell-based. The settings on record: Canis lupus familiaris; dog tracheal rings, 50 mM KCl contraction. As for the experimental part: The trachea and the aorta from dogs sacrificed by excess KCl injection are stored overnight at 4° C. in oxygenated Krebs-Henseleit buffer. Tracheal rings, one cartilage segment wide (5-10 mm), are cut starting from the bronchial end. Rings of aorta tissue of the same width are also prepared. After cutting the cartilage, the trachealis muscle tissue and the aorta tissue are suspended in oxygenated Krebs-Henseleit buffer at 37° C. in a 25 ml tissue bath. After a 60-minute equilibration period, the tissues are challenged with 10 μM carbachol. After 5 minutes, the tissues are rinsed and allowed to rest 50 minutes. The tissues are then challenged with 50 mM KCl and, after 30 minutes, the contractions are quantitated. The tissues are then rinsed and re-equilibrated for 50 minutes. Test compounds are then added for 10 minutes, and the tissue is rechallenged with 50 mM KCl. After 30 minutes, the contraction is recorded. A percent inhibition of smooth muscle contraction can then be calculated.
Regarding `CC1=C(C(=O)OCCN(C)Cc2ccccc2)C(c2c(F)c(F)c(F)c(F)c2F)C2=C(CS(=O)(=O)CCCS2(=O)=O)N1` (stereo not shown) [Compound 27, 2H,6H-1,5-Dithiocino[3,2-b]pyridine-9-carboxylic acid, 3,4,7,10-tetrahydro-8-methyl-10-(pentafluorophenyl)-2-[methyl(phenylmethyl)amino]ethyl ester 1,1,5,5-tetraoxide], the IC50 worked out at 6200 nM.
On the same count and under the same terms, then `CC1=C(C(=O)OCCN(C)Cc2ccccc2)C(c2c(F)cccc2Cl)C2=C(CS(=O)(=O)CCS2(=O)=O)N1` (stereo not shown) [Compound 1, 5H-1,4-Dithiepino[6,5-b]pyridine-8-carboxylic acid, 9-(2-chloro-6-fluorophenyl)-2,3,6,9-tetrahydro-7-methyl-2-[methyl(phenylmethyl)amino]ethyl ester 1,1,4,4-tetraoxide], with 650 nM; and `CC1=C(C(=O)OCCN(C)Cc2ccccc2)[C@@H](c2c(F)cccc2Cl)C2=C(CS(=O)(=O)CCS2(=O)=O)N1` (single isomer, unassigned) [Compound 2, 5H-1,4-Dithiepino[6,5-b]pyridine-8-carboxylic acid, 9-(2-chloro-6-fluorophenyl)-2,3,6,9-tetrahydro-7-methyl-2-[methyl(phenylmethyl)amino]ethyl ester 1,1,4,4-tetraoxide], with 660 nM.
